These results are taken from US7772246B2 (Pfizer Inc., priority 2007, dated 2010).

The assay concerns the target T1, b-Raf (Homo sapiens, UniProt P15056, V600E).
T1 construct: endogenous in cells; host or cells: A2058 human melanoma cells
Put plainly: Raf cellular assay (phospho-Mek1/2 ELISA in A2058 cells). In kind it is cell-based. As to conditions: Table 3; human melanoma A2058 cells (b-Raf mutation), Mek1/2 Ser217/221 phosphorylation, 1 hour incubation; read-out: pMEK IC50. As for the experimental part:
Compounds of the present invention were evaluated for potency against b-Raf using a cellular assay as follows. The activity of Raf kinases in cells is determined by measuring the level of phosphorylation of Mek1/2 at serine 217/221, the site phosphorylated by Raf kinases in vivo. Mek1/2 Ser phosphorylation is measured using anti-phospho-Mek1/2 antibodies (Cell Signaling #9121) in an ELISA format.
Healthy growing human melanoma A2058 cells (harboring a b-Raf mutation) are used for the assay. A2058 cells are grown in 10% FBS DMEM medium. When the cells are near 85%+confluence, the cells are rinsed with PBS once and trypsinized with trypsin/EDTA for 3 minutes. The cells are resuspended in 10% FBS DMEM and are centrifuged down at 1000 rpm for 5 minutes. The cells are resuspended in 10% FBS DMEM and counted on a cell counter. The cells are seeded at 50,000 cells/well in a volume of 100 μL/well in 10% FBS DMEM in a 96 well flat-bottom plate. The negative control wells receive only 100 μL of 10% FBS DMEM medium without cells. The plate is incubated overnight in a cell culture incubator with 5% CO2 at 37° C.
On day 2, testing compounds are prepared in 10% FBS DMEM medium and serially diluted at 1:3 for 11 test concentrations. Each concentration of the compounds is tested in duplicate. The compound solutions are added at 25 μL/well to the corresponding wells in the cell plate, and 25 μL/well of the vehicle (0.5% DMSO in 10% FBS DMEM) is added to the negative control wells (no cells) and the positive control wells (cells without compounds). The plate is incubated for 1 hour in a cell culture incubator with 5% CO2 at 37° C. After 1 hour of incubation, the medium is removed, 100 μL/well of cell lysis buffer is added into the cell plate, and the plate is shaken for 15 minutes at room temperature. After 15 minutes, the cell lysates are transferred to an ELISA plate (pre-coated with anti-Mek1 anti-body, Cell Signaling #2352), and the plate is incubated with gentle shaking for 2 hours at room temperature. After 2 hours, the contents of the wells are aspirated and the wells are washed 4 times with wash buffer. 100 μL of phospho-Mek1/2 detection antibody (Cell Signaling #9121) is added into each well and the plate is incubated with gentle shaking for 1 hour at room temperature. After 1 hour, the wells are aspirated and washed 4 times with wash buffer. 100 μL of anti-rabbit IgG HRP-linked antibody (Cell Signaling #7074) is added to each well, and the plate is incubated with gentle shaking for 1 hour at room temperature. After 1 hour, the contents of the wells are aspirated and the wells are washed 4 times with wash buffer. 100 μL of TMB substrate solution (Sigma #T0440) is added into each well, and the plate is incubated with gentle shaking at room temperature for 10 to 20 minutes. After color development, 100 μL of stop solution (1N hydrochloric acid) is added to each well to terminate color development. The plate is read at 450 nm on an ELISA plate reader.
In general terms: In an ELISA, binding on a coated surface is turned into a signal by an enzyme label.

Each structure is given as a SMILES string.

T1 sequence (P15056 whole entry V600E): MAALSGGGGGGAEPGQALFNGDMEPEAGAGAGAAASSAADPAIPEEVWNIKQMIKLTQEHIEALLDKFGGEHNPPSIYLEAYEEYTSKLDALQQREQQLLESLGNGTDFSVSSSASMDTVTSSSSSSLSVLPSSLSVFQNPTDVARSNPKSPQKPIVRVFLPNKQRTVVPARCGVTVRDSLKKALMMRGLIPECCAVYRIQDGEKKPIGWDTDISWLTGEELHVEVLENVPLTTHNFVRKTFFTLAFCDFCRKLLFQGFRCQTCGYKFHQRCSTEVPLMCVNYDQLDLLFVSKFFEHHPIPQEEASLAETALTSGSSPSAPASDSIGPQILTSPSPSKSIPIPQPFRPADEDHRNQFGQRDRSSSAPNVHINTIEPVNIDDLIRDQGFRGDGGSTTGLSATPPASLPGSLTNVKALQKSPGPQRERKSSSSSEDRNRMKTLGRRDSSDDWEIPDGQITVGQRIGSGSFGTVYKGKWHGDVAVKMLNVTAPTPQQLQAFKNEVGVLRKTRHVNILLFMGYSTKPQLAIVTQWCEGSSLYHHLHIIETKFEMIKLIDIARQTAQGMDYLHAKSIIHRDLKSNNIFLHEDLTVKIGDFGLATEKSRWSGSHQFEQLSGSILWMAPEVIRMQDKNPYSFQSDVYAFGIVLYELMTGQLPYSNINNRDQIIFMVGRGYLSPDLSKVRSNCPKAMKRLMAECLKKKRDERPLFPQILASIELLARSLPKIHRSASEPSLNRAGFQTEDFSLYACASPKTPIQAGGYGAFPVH

`Cc1c[nH]c2ncc(-c3nn(C(F)F)cc3-c3ccnc(N)n3)cc12` [Example B-40, 4-[1-(difluoromethyl)-3-(3-methyl-1H-pyrrolo[2,3-b]pyridin-5-yl)-1H-pyrazol-4-yl]pyrimidin-2-amine]: the IC50 was 0.0482 µM. Take `COc1cc(-c2nn(C(F)F)cc2-c2ccnc(NC[C@H](C)O)n2)cnc1N` [Example B-41, (2S)-1-({4-[3-(6-amino-5-methoxypyridin-3-yl)-1-(difluoromethyl)-1H-pyrazol-4-yl]pyrimidin-2-yl}amino)propan-2-ol]: the IC50 came to 0.0785 µM. The figure for `CC(C)n1cc(-c2ccnc(NC[C@H](C)O)n2)c(-c2cnc(N)nc2)n1` [Example B-42, (2S)-1-({4-[3-(2-aminopyrimidin-5-yl)-1-isopropyl-1H-pyrazol-4-yl]pyrimidin-2-yl}amino)propan-2-ol] is 5.65 µM. As to `Nc1nccc(-c2cn(C(F)F)nc2-c2cnc3[nH]cc(Cl)c3c2)n1` [Example B-43, 4-[3-(3-chloro-1H-pyrrolo[2,3-b]pyridin-5-yl)-1-(difluoromethyl)-1H-pyrazol-4-yl]pyrimidin-2-amine], the IC50 stood at 0.0441 µM. Consider `Cc1c[nH]c2ncc(-c3nn(C(F)F)cc3-c3ccnc(NCCC#N)n3)cc12` [Example B-44, 3-({4-[1-(difluoromethyl)-3-(3-methyl-1H-pyrrolo[2,3-b]pyridin-5-yl)-1H-pyrazol-4-yl]pyrimidin-2-yl}amino)-propanenitrile], for which the half-maximal inhibitory concentration (IC50) amounted to 0.00137 µM.

Take `CC(C)n1cc(-c2ccnc(NC[C@H](C)O)n2)c(-c2cnc(N)c(O)c2)n1` [Example B-45, 2-amino-5-[4-(2-{[(2S)-2-hydroxypropyl]-amino}pyrimidin-4-yl)-1-isopropyl-1H-pyrazol-3-yl]pyridin-3-ol]: the half-maximal inhibitory concentration (IC50) worked out at 0.319 µM. The figure for `COc1cncc(-c2nn(CC(F)F)cc2-c2ccnc(NCCC#N)n2)c1` [Example B-46, 3-({4-[1-(2,2-difluoroethyl)-3-(5-methoxypyridin-3-yl)-1H-pyrazol-4-yl]pyrimidin-2-yl}amino)propanenitrile] is 0.016 µM; for `Cc1cc(-c2nn(C(C)(C)CO)cc2-c2ccnc(NCCC#N)n2)cnc1N` [Example B-47, 3-({4-[3-(6-amino-5-methylpyridin-3-yl)-1-(2-hydroxy-1,1-dimethylethyl)-1H-pyrazol-4-yl]pyrimidin-2-yl}amino)-propanenitrile] it is 0.0862 µM; for `CC(C)(CO)n1cc(-c2ccnc(NCC(F)F)n2)c(-c2cnc3[nH]ccc3c2)n1` [Example B-48, 2-[4-{2-[(2,2-difluoroethyl)amino]pyrimidin-4-yl}-3-(1H-pyrrolo[2,3-b]pyridin-5-yl)-1H-pyrazol-1-yl]-2-methylpropan-1-ol] it is 0.0303 µM.

On to `COc1cncc(-c2nn(C(C)(C)CO)cc2-c2ccnc(NCCC#N)n2)c1` [Example B-49, 3-(4-(1-(1-hydroxy-2-methylpropan-2-yl)-3-(5-methoxypyridin-3-yl)-1H-pyrazol-4-yl)pyrimidin-2-ylamino)propanenitrile], for which the IC50 turned out to be 0.0224 µM.

For the molecule `CC(C)n1cc(-c2ccnc(NCCC#N)n2)c(-c2cnc3[nH]ccc3c2)n1` [Example B-50, 3-({4-[1-isopropyl-3-(1H-pyrrolo[2,3-b]pyridin-5-yl)-1H-pyrazol-4-yl]pyrimidin-2-yl}amino)-propanenitrile], the IC50 was found to be 0.00729 µM. The figure for `Cc1n[nH]c2ncc(-c3nn(C(C)C)cc3-c3ccnc(NCCC#N)n3)cc12` [Example B-51, 3-({4-[1-isopropyl-3-(3-methyl-1H-pyrazolo[3,4-b]pyridin-5-yl)-1H-pyrazol-4-yl]pyrimidin-2-yl}amino)propanenitrile] is 0.011 µM. In the case of `CC(=O)c1cc(-c2nn(C(C)C)cc2-c2ccnc(NCCC#N)n2)cnc1N` [Example B-52, 3-({4-[3-(5-acetyl-6-aminopyridin-3-yl)-1-isopropyl-1H-pyrazol-4-yl]pyrimidin-2-yl}amino)propanenitrile], the IC50 worked out at 0.0093 µM. The figure for `CC(C)n1cc(-c2ccnc(NCCC#N)n2)c(-c2cccnc2)n1` [Example B-53, 3-{[4-(1-isopropyl-3-pyridin-3-yl-1H-pyrazol-4-yl)pyrimidin-2-yl]amino}-propanenitrile] is 1.32 µM; for `COc1cc(-c2nn(C(C)(C)C)cc2-c2ccnc(NCC(F)F)n2)cnc1N` [Example B-54, 4-[3-(6-amino-5-methoxypyridin-3-yl)-1-tert-butyl-1H-pyrazol-4-yl]-N-(2,2-difluoroethyl)pyrimidin-2-amine] it is 0.00124 µM.

Turning to `C[C@H](CO)n1cc(-c2ccnc(N)n2)c(-c2cnc3[nH]cc(Cl)c3c2)n1` [Example B-55, (2R)-2-[4-(2-aminopyrimidin-4-yl)-3-(3-chloro-1H-pyrrolo[2,3-b]pyridin-5-yl)-1H-pyrazol-1-yl]propan-1-ol], the 50% inhibitory concentration (IC50) was found to be 0.0636 µM. As for `COc1cc(-c2nn(C3CC3)cc2-c2ccnc(N)n2)cnc1N` [Example B-56, 4-[3-(6-amino-5-methoxypyridin-3-yl)-1-cyclopropyl-1H-pyrazol-4-yl]pyrimidin-2-amine], the IC50 came out at 0.0833 µM. The figure for `COc1cc(-c2nn(C3CC3)cc2-c2ccnc(NCCC#N)n2)cnc1N` [Example B-57, 3-({4-[3-(6-amino-5-methoxypyridin-3-yl)-1-cyclopropyl-1H-pyrazol-4-yl]pyrimidin-2-yl}amino)-propanenitrile] is 0.00295 µM; for `Cc1c[nH]c2ncc(-c3nn(C(C)(C)CO)cc3-c3ccnc(N)n3)cc12` [Example B-58, 2-[4-(2-aminopyrimidin-4-yl)-3-(3-methyl-1H-pyrrolo[2,3-b]pyridin-5-yl)-1H-pyrazol-1-yl]-2-methylpropan-1-ol] it is 0.00986 µM. On to `COc1cc(-c2nn(C3CC3)cc2-c2ccnc(NCC(F)F)n2)cnc1N` [Example B-59, 4-[3-(6-amino-5-methoxypyridin-3-yl)-1-cyclopropyl-1H-pyrazol-4-yl]-N-(2,2-difluoroethyl)pyrimidin-2-amine], for which the IC50 amounted to 0.00686 µM.

On to `CC(C)n1cc(-c2ccnc(N)n2)c(-c2cnc3[nH]cc(Cl)c3c2)n1` [Example B-60, 4-[3-(3-chloro-1H-pyrrolo[2,3-b]pyridin-5-yl)-1-isopropyl-1H-pyrazol-4-yl]pyrimidin-2-amine], for which the half-inhibitory concentration (IC50) was determined as 0.044 µM. For the molecule `CCn1cc(-c2ccnc(NC[C@H](C)O)n2)c(-c2cnc3[nH]cc(Cl)c3c2)n1` [Example B-61, (2S)-1-({4-[3-(3-chloro-1H-pyrrolo[2,3-b]pyridin-5-yl)-1-ethyl-1H-pyrazol-4-yl]pyrimidin-2-yl}amino)propan-2-ol], the IC50 came out at 0.0673 µM.

Consider `Cc1c[nH]c2ncc(-c3nn(C(C)C)cc3-c3ccnc(N)n3)cc12` [Example B-62, 4-[1-isopropyl-3-(3-methyl-1H-pyrrolo[2,3-b]pyridin-5-yl)-1H-pyrazol-4-yl]pyrimidin-2-amine], for which the IC50 came to 0.0481 µM.

As to `Nc1nccc(-c2cn(C3CCNCC3)nc2-c2cnc3[nH]cc(Cl)c3c2)n1` [Example B-63, 4-[3-(3-chloro-1H-pyrrolo[2,3-b]pyridin-5-yl)-1-piperidin-4-yl-1H-pyrazol-4-yl]pyrimidin-2-amine], the half-maximal inhibitory concentration (IC50) is 0.0437 µM.

Regarding `Clc1c[nH]c2ncc(-c3nn(C4CCNCC4)cc3-c3ccncn3)cc12` [Example B-64, 3-chloro-5-(1-piperidin-4-yl-4-pyrimidin-4-yl-1H-pyrazol-3-yl)-1H-pyrrolo[2,3-b]pyridine], the IC50 was 0.0617 µM.

On to `CC(C)(C)n1cc(-c2ccnc(N)n2)c(-c2cnc3[nH]cc(Cl)c3c2)n1` [Example B-65, 4-[1-tert-butyl-3-(3-chloro-1H-pyrrolo[2,3-b]pyridin-5-yl)-1H-pyrazol-4-yl]pyrimidin-2-amine], for which the IC50 worked out at 0.00904 µM. Consider `Cc1c[nH]c2ncc(-c3nn(C(C)(C)C)cc3-c3ccnc(NC[C@H](C)O)n3)cc12` [Example B-66, (2S)-1-({4-[1-tert-butyl-3-(3-methyl-1H-pyrrolo[2,3-b]pyridin-5-yl)-1H-pyrazol-4-yl]pyrimidin-2-yl}amino)propan-2-ol], for which the IC50 was determined as 0.00287 µM.

For orientation: IC50 means the concentration that gives 50% inhibition.
